Target: Ras-related C3 botulinum toxin substrate 1 (Homo sapiens) (UniProt P63000)
Experiment: activated Rac1 mutant nucleotide-binding inhibitors – biochemical, multiplex, GST-Rac1 beads, Bodipy-FL-GTP, flow cytometry, dose response (AID 1339)

Structure (SMILES) | EC50 [µM]
Cc1ccc(Nc2cc(C(=O)O)c3ccccc3n2)cc1C | 5.56
CC(=O)Nc1cccc(C#CC(=O)c2ccc([N+](=O)[O-])cc2)c1 | 14.2
Cc1cc(C)c(C)c(C(=O)c2ccccc2C(=O)O)c1C | 1.52
O=C(O)c1cc(Sc2ccc(F)cc2)nc2ccccc12 | 46.8
O=C(O)c1cc(Sc2ccc(Cl)cc2)nc2ccccc12 | 69.4
Cc1cc(C)cc(OCCSc2nc3ccccc3n2CC(=O)O)c1 | 23.6
CC(=O)c1c(C)[nH]c(C(=O)N2CCc3ccccc3C2)c1C | 2.53
O=[N+]([O-])c1cc2oc3c(c2c(C=NCc2ccccc2)c1O)CCCC3 | 5.79
Cc1ccc(C(C)C)c(OCCn2cc(C(=O)O)c3ccccc32)c1 | 0.635
O=C(C#Cc1ccc(F)cc1)c1ccc([N+](=O)[O-])cc1 | 3.92
COc1cccc(CNCc2sc(C(=O)O)cc2C)c1 | 25.9
COc1ccc(Cl)cc1NCc1sc(C(=O)O)cc1C | 2.19
CCOC(=O)c1c(NC(=O)/C=C/c2ccc3c(c2)OCO3)sc(C)c1CC | 30.1
CCn1nc(C(=O)OCC(=O)c2cc(C)n(Cc3cccs3)c2C)c2ccccc2c1=O | 45.6
O=C(Nc1nnc(-c2ccc3c(c2)OCCO3)o1)c1ccc(Cc2ccccc2)cc1 | 10.2
CNC(=S)N=Nc1c(O)[nH]c2ccccc12 | 91.6
O=C(O)c1cn(CCOc2ccccc2)c2ccccc12 | 0.857
COc1ccc(C(=O)Nc2cc(Cl)ccc2C(=O)O)cc1 | 22.1
O=C(c1nnsc1S(=O)(=O)c1ccc(Cl)cc1)N1CCOCC1 | 13.7
CSc1ccc(/C=N/NC(=O)c2cc(O)cc(O)c2)cc1 | 55.4
COc1ccccc1NCc1sc(C(=O)O)cc1C | 4.26
O=C(CSc1ncnc2scc(-c3ccccc3)c12)N1CCN(Cc2ccc3c(c2)OCO3)CC1 | 61.1
CCN(CC)c1ccc2cc(-c3nc(-c4ccc(OC)cc4)cs3)c(=O)oc2c1 | 0.553
Cc1cc(NC(=O)CSc2nc(-c3ccccc3)c(C#N)c(=O)[nH]2)no1 | 12.9
O=C(C#Cc1ccccc1)c1cccc([N+](=O)[O-])c1 | 23.5
Cc1ccc(C(C)C)c(OCCSc2nc3ccccc3n2CC(=O)O)c1 | 33.5
CCOC(=O)c1cc([N+](=O)[O-])c([N+](=O)[O-])cc1NC(C)=O | 31.5
CC(=O)c1ccc(C#CC(=O)c2ccc([N+](=O)[O-])cc2)cc1 | 1.22

Structure (SMILES) | EC50 [µM]
CS(=O)(=O)c1ccc(C(=O)OCC(=O)NC(=O)C2CCCCC2)cc1[N+](=O)[O-] | 43.2
O=C(O)c1ccccc1NCc1c(Cl)cccc1Cl | 34.1
Cc1ccc(C)c(OCCn2cc(C(=O)O)c3ccccc32)c1 | 0.222
Cc1cc(OCCSc2nc3ccccc3n2CC(=O)O)ccc1Cl | 25.1
CC(C)(C)C#CC(=O)c1ccc([N+](=O)[O-])cc1 | 65.1
O=C(O)/C=C/c1cn(Cc2ccccc2)nc1-c1cccs1 | 1.94
COc1cccc(NC(=O)COC(=O)/C=C/c2ccc(Cl)cc2Cl)c1 | 13.3
COc1ccccc1OCCn1cc(C(=O)O)c2ccc(Cl)cc21 | 1.75
Cc1cc(C(=O)Oc2ccccc2C(=O)O)c(C)o1 | 0.665
N#Cc1c(-c2ccccc2)nc(SCC(=O)Nc2ccccc2)[nH]c1=O | 29.5
Cc1ccc(-n2c(-c3cnccn3)n[nH]c2=S)c(Br)c1 | 28
Cc1ccccc1OCCn1c(C)c(C(=O)O)c2ccccc21 | 0.625
CCc1ccc(NS(=O)(=O)c2ccc3[nH]cc(C(=O)N4CCc5ccccc54)c(=O)c3c2)cc1 | 20.6
COc1ccc(OC)c(-c2c3cc(O)c(=O)cc-3oc3cc(O)c(O)cc23)c1 | 0.28
O=C(C#Cc1ccccc1)c1ccc([N+](=O)[O-])cc1 | 6.48
Cc1nn(Cc2ccccc2)c(Cl)c1C(=O)O | 21.7
Cc1ccccc1C(=O)Nc1ccc2c(C#N)c3nc4ccccc4nc3n2c1 | 0.889
CCOc1ccc(/C=C2\SC(N3CCc4ccccc4C3)=NC2=O)cc1 | 10.6
Cc1ccc(SC(CC(=O)c2ccc(C(C)(C)C)cc2)C(=O)O)cc1 (stereo not given) | 12.3
CCCOc1ccc(OCCSc2nc3ccccc3n2CC(=O)O)cc1 | 35.6
O=C(O)c1ccccc1Sc1ncnc2sc3c(c12)CCC3 | 1.08
COc1cc(C(=O)OCC(=O)Nc2ccc3c(c2)OC(F)(F)O3)ccc1OCc1c(C)noc1C | 14.2
OC(CNCCc1ccc(Cl)cc1)COc1ccc2ccccc2c1 (stereo not given) | 39
COc1ccc(C(=O)c2c(O)cc(-c3ccc(OC)cc3)oc2=O)cc1 | 3.57
COc1ccccc1OCc1cccc(C(=O)O)c1 | 9.53
COC(=O)c1cccnc1SCCc1ccccc1 | 36.6
Cc1cc(C(=O)Cn2nc(C(=O)O)c3ccccc3c2=O)c(C)n1-c1ccc(OC(F)F)cc1 | 3.55
